Results: patent US20090068290A1, “BIFEPRUNOX DOSES FOR TREATING SCHIZOPHRENIA” (priority 2006, published 2009)

Key:
Format in all cases: in vivo, human
[1] = tested on: adult subjects with schizophrenia; experiment: CGI Improvement score, Clinical Study Two; settings: 40 mg, LOCF
Protocol: (§1) Rating scale assessments were performed weekly, except for week 5, to measure the change from baseline to endpoint of the PANSS total score. Other assessments included: PANSS positive symptom subscale score, PANSS negative symptom subscale score, PANSS general pschopathology subscale score, BPRS total score, BPRS psychosis score, the CGI-S score, the CGI-I score, responder rates based on the PANSS total score, and the Calgary Depression Scale for Schizophrenia (CDSS). […]
(§2) Subjects who completed this study had the option to continue in the long-term. […] Risperidone-treated subjects were titrated from 2 mg to 6 mg daily over a three-day period and were subsequently maintained at 6 mg/day for the remainder of the treatment period. […] Blood samples were also obtained at Screening/Baseline, Week 3, and Week 6 for clinical laboratory assessments.

[2] = tested on: adult subjects with schizophrenia; experiment: Calgary Depression Scale for Schizophrenia (CDSS), Clinical Study Two; settings: for CDSS Total Score, Trt Effect / Change from Baseline in CDSS Total Score, Mean (SD) / Change from Baseline in CDSS Total Score, Median / mean change (SD) from Baseline to Endpoint in CDSS score: LOCF; for CDSS score, treatment effect (bifeprunox, placebo): Endpoint LOCF; for mean change (SD) from Baseline to Endpoint in CDSS score: ITT
Protocol: as §1, §2

[3] = tested on: adult subjects with schizophrenia; experiment: BPRS psychosis cluster score, Clinical Study Three; settings: for Change from Baseline in BPRS Psychosis Cluster Score, Mean (SD) / Change from Baseline in BPRS Psychosis Cluster Score, Median / Change from Baseline in BPRS Psychosis Cluster Score, Trt Effect (bifeprunox—placebo) / mean change (SD) from Baseline to Endpoint in BPRS psychosis cluster score: LOCF; for Change from Baseline in BPRS Psychosis Cluster Score, Mean (SD) / Change from Baseline in BPRS Psychosis Cluster Score, Median / Change from Baseline in BPRS Psychosis Cluster Score, Trt Effect (bifeprunox—placebo): ITT population; for BPRS psychosis cluster score, treatment effect (bifeprunox—placebo): Endpoint LOCF; for mean change (SD) from Baseline to Endpoint in BPRS psychosis cluster score: ITT
Excerpt: SECONDARY OBJECTIVES To assess the efficacy of bifeprunox in treating schizophrenia using the Positive Symptom sub-scale score of the PANSS, the Negative Symptom sub-scale score of the PANSS, the General Psychopathology sub-scale of the PANSS, Brief Psychiatric Rating Scale (BPRS) total score derived from the PANSS, BPRS psychosis score derived from the PANSS, the Clinical Global Impression Severity of Illness score (CGI-S), the Clinical Global Impression Improvement score (CGI-I), CGI-I responder rate, PANSS responder rate based on the PANSS total score, Calgary Depression Scale for Schizophrenia (CDSS), and Subject Satisfaction rating.
There were four treatment arms in this study, approximately 144 subjects per arm. […] After completing the Single-Blind Placebo Lead-in Period of at least three days, bifeprunox-treated subjects were titrated from 0.25 mg up to 20 mg/day or 30 mg/day according to a standardized titration scheme over a seven- or eight-day period, respectively. When the assigned dose was reached, subjects were maintained at that dose for the remainder of the six week treatment period. […] Subjects were hospitalized (if not already inpatients) after eligibility for study entry was verified, starting from the Screening Visit until at least 10 days after Baseline. Subjects could be hospitalized longer than 10 days if considered medically necessary by the Investigator. Rating scale assessments for efficacy and abnormal movement disorders were done weekly except for Week 5. […] Subject satisfaction with study medication was assessed at Week 6.

[4] = Bifeprunox 20 mg, Week 6/Endpoint
[5] = Bifeprunox 30 mg, Week 6/Endpoint

O=c1[nH]c2cccc(N3CCN(Cc4cccc(-c5ccccc5)c4)CC3)c2o1 [Bifeprunox, 7-[4-([1,1′-biphenyl]-3-ylmethyl)-1-piperazinyl]-2(3H)-benzoxazolone]
CGI Improvement Minimally Improved, % ([1]; Week 3): (30%) | CGI Improvement Minimally Worse, % ([1]; Week 3): (6%) | CGI Improvement Much Improved, % ([1]; Week 3): (21%) | CGI Improvement Much Worse, % ([1]; Week 3): (14%) | CGI Improvement No Change, % ([1]; Week 3): (23%) | CGI Improvement Very Much Improved, % ([1]; Week 3): (5%) | CGI Improvement Minimally Improved, % ([1]; Week 4): (29%) | CGI Improvement Minimally Worse, % ([1]; Week 4): (9%) | CGI Improvement Much Improved, % ([1]; Week 4): (20%) | CGI Improvement Much Worse, % ([1]; Week 4): (14%) | CGI Improvement No Change, % ([1]; Week 4): (21%) | CGI Improvement Very Much Improved, % ([1]; Week 4): (7%) | CGI Improvement Minimally Improved, % ([1]; Week 6/Endpoint): (26%) | CGI Improvement Minimally Worse, % ([1]; Week 6/Endpoint): (11%) | CGI Improvement Much Improved, % ([1]; Week 6/Endpoint): (19%) | CGI Improvement Much Worse, % ([1]; Week 6/Endpoint): (15%) | CGI Improvement No Change, % ([1]; Week 6/Endpoint): (20%) | CGI Improvement Very Much Improved, % ([1]; Week 6/Endpoint): (9%) | CDSS Total Score, Trt Effect ([2]; 30 mg versus placebo, Week 6/Endpoint): −0.38 | Change from Baseline in CDSS Total Score, Mean (SD) ([2]; 30 mg, Week 1): −0.01 (2.90) | Change from Baseline in CDSS Total Score, Median ([2]; 30 mg, Week 1): 0.0 | Change from Baseline in CDSS Total Score, Mean (SD) ([2]; 30 mg, Week 2): −0.51 (3.37) | Change from Baseline in CDSS Total Score, Median ([2]; 30 mg, Week 2): 0.0 | Change from Baseline in CDSS Total Score, Mean (SD) ([2]; 30 mg, Week 3): −0.51 (3.56) | Change from Baseline in CDSS Total Score, Median ([2]; 30 mg, Week 3): 0.0 | Change from Baseline in CDSS Total Score, Mean (SD) ([2]; 30 mg, Week 4): −0.63 (3.48) | Change from Baseline in CDSS Total Score, Median ([2]; 30 mg, Week 4): 0.0 | Change from Baseline in CDSS Total Score, Mean (SD) ([2]; 30 mg, Week 6/Endpoint): −0.66 (3.64) | Change from Baseline in CDSS Total Score, Median ([2]; 30 mg, Week 6/Endpoint): 0.0 | CDSS Total Score, Trt Effect ([2]; 40 mg versus placebo, Week 6/Endpoint): 0.29 | Change from Baseline in CDSS Total Score, Mean (SD) ([2]; 40 mg, Week 1): −0.54 (2.56) | Change from Baseline in CDSS Total Score, Median ([2]; 40 mg, Week 1): 0.0 | Change from Baseline in CDSS Total Score, Mean (SD) ([2]; 40 mg, Week 2): −0.32 (2.95) | Change from Baseline in CDSS Total Score, Median ([2]; 40 mg, Week 2): 0.0 | Change from Baseline in CDSS Total Score, Mean (SD) ([2]; 40 mg, Week 3): −0.44 (3.09) | Change from Baseline in CDSS Total Score, Median ([2]; 40 mg, Week 3): 0.0 | Change from Baseline in CDSS Total Score, Mean (SD) ([2]; 40 mg, Week 4): −0.19 (3.32) | Change from Baseline in CDSS Total Score, Median ([2]; 40 mg, Week 4): 0.0 | Change from Baseline in CDSS Total Score, Mean (SD) ([2]; 40 mg, Week 6/Endpoint): 0.01 (3.66) | Change from Baseline in CDSS Total Score, Median ([2]; 40 mg, Week 6/Endpoint): 0.0 | CDSS score, treatment effect (bifeprunox, placebo) ([2]; bifeprunox 30 mg): −0.38 | mean change (SD) from Baseline to Endpoint in CDSS score ([2]; bifeprunox 30 mg): −0.66 (3.64) | CDSS score, treatment effect (bifeprunox, placebo) ([2]; bifeprunox 40 mg): 0.29 | mean change (SD) from Baseline to Endpoint in CDSS score ([2]; bifeprunox 40 mg): 0.01 (3.66) | Change from Baseline in BPRS Psychosis Cluster Score, Mean (SD) ([3]; Bifeprunox 20 mg, Week 1): −1.4 (2.3) | Change from Baseline in BPRS Psychosis Cluster Score, Median ([3]; Bifeprunox 20 mg, Week 1): −1 | Change from Baseline in BPRS Psychosis Cluster Score, Mean (SD) ([3]; Bifeprunox 20 mg, Week 2): −2.1 (2.9) | Change from Baseline in BPRS Psychosis Cluster Score, Median ([3]; Bifeprunox 20 mg, Week 2): −2 | Change from Baseline in BPRS Psychosis Cluster Score, Mean (SD) ([3]; Bifeprunox 20 mg, Week 3): −2.6 (3.4) | Change from Baseline in BPRS Psychosis Cluster Score, Median ([3]; Bifeprunox 20 mg, Week 3): −3 | Change from Baseline in BPRS Psychosis Cluster Score, Median ([3]; Bifeprunox 20 mg, Week 4): −3 | Change from Baseline in BPRS Psychosis Cluster Score, Mean (SD) [3, 4]: −3.1 (3.9) | Change from Baseline in BPRS Psychosis Cluster Score, Median [3, 4]: −3 | Change from Baseline in BPRS Psychosis Cluster Score, Trt Effect (bifeprunox—placebo) [3, 4]: −0.6 | Change from Baseline in BPRS Psychosis Cluster Score, Mean (SD) ([3]; Bifeprunox 30 mg, Week 1): −1.7 (2.5) | Change from Baseline in BPRS Psychosis Cluster Score, Median ([3]; Bifeprunox 30 mg, Week 1): −2 | Change from Baseline in BPRS Psychosis Cluster Score, Mean (SD) ([3]; Bifeprunox 30 mg, Week 2): −2.3 (3.3) | Change from Baseline in BPRS Psychosis Cluster Score, Median ([3]; Bifeprunox 30 mg, Week 2): −2 | Change from Baseline in BPRS Psychosis Cluster Score, Mean (SD) ([3]; Bifeprunox 30 mg, Week 3): −2.7 (3.8) | Change from Baseline in BPRS Psychosis Cluster Score, Median ([3]; Bifeprunox 30 mg, Week 3): −3 | Change from Baseline in BPRS Psychosis Cluster Score, Mean (SD) ([3]; Bifeprunox 30 mg, Week 4): −3.0 (4.0) | Change from Baseline in BPRS Psychosis Cluster Score, Median ([3]; Bifeprunox 30 mg, Week 4): −3 | Change from Baseline in BPRS Psychosis Cluster Score, Mean (SD) [3, 5]: −3.2 (4.4) | Change from Baseline in BPRS Psychosis Cluster Score, Median [3, 5]: −3 | Change from Baseline in BPRS Psychosis Cluster Score, Trt Effect (bifeprunox—placebo) [3, 5]: −0.5 | BPRS psychosis cluster score, treatment effect (bifeprunox—placebo) ([3]; bifeprunox 20 mg): −0.6 | mean change (SD) from Baseline to Endpoint in BPRS psychosis cluster score ([3]; bifeprunox 20 mg): −3.1 (3-9) | BPRS psychosis cluster score, treatment effect (bifeprunox—placebo) ([3]; bifeprunox 30 mg): −0.5 | mean change (SD) from Baseline to Endpoint in BPRS psychosis cluster score ([3]; bifeprunox 30 mg): −3.2 (4.4)
